Data from publication PMC7792806, “Development of Second Generation Activity-Based Chemical Probes for Sirtuins” (Molecules, 2020).

Experiments:
[1] = target: T1, SIRT6 (Homo sapiens, UniProt Q8N6T7); assay: Sirtuin inhibition assay (HPLC), SIRT6; type: biochemical; design: host or cells: E. coli (inferred from b12); details: substrate H3K9Ac; 500 μM NAD+, 500 μM peptide, 10 μM sirtuin, pH 7.5, 37 °C; NI = Not inhibited
Procedure: Plasmids of SIRT1 (full length), SIRT2 (38-356), SIRT3 (102-399), and SIRT5 (34-302) were generous gifts from Dr. Hening Lin (Cornell University, Ithaca, NY, USA). SIRT6 was a gift from Cheryl Arrowsmith (Addgene plasmid #28271). The proteins were expressed and purified according to previously published protocols. The identity of the protein was confirmed by tryptic digestion followed by LC-MS/MS analysis performed at the Vermont Genetic Network (VGN) Proteomics Facility. Protein concentrations were determined by Bradford assay (Thermo Fisher Scientific, Rockford, IL, USA).
A typical reaction contained 500 μM NAD^+ and 500 μM peptide substrate (H3K9Ac for SIRT2, SIRT3 and SIRT6, p53K382Ac for SIRT1 and SIRT5) of varying concentrations of a small molecule probe in 100 mM phosphate buffer pH 7.5. The reactions were initiated by the addition of 10 μM of sirtuin and were incubated at 37 °C before being quenched by 8 μL of 10% TFA. The incubation time was controlled so that the conversion of substrate was less than 15%. The samples were then injected on an HPLC fitted to a Macherey-Nagel Nucleosil C18 column. NAD^+, NAM and AADPR (acetyl-ADP-ribose) peaks were resolved using a gradient of 0 to 20% methanol in 20 mM ammonium acetate. Chromatograms were analyzed at 260 nm. Reactions were quantified by integrating areas of peaks corresponding to NAD^+ and AADPR. […]

[2] = target: T2, SIRT2 (Homo sapiens, UniProt Q8IXJ6); assay: Cell lysate labeling, SIRT2-overexpressing HEK293; type: biochemical; details: 10 μM probe
T2 construct: expressed in transfected cells; host or cells: HEK293
T2 sequence (Q8IXJ6 1-389): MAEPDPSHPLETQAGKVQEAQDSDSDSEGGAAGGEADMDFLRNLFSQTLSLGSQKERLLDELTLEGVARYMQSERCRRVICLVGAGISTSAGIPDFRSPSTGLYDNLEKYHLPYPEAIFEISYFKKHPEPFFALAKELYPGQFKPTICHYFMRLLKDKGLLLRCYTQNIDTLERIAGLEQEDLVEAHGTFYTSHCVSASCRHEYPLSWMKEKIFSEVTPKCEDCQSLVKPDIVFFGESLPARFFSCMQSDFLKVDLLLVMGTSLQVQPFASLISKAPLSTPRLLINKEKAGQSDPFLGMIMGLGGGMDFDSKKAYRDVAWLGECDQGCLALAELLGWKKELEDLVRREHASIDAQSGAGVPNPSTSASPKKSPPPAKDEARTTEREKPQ
Procedure: Remarkably, probe 2C was also able to label individual sirtuin isoforms in cell lysates. HEK293 cells overexpressing human SIRT2 were lysed, and the lysate was subjected to the labeling by 10 μM probe 2C.
Cells were harvested and lysed with RIPA buffer (Thermo Fisher Scientific, Rockford, IL, USA) supplemented with protease inhibitor cocktail (Thermo Fisher Scientific, Rockford, IL, USA). Protein concentration was determined by Bradford assay. A typical labeling experiment contained 4 to 24 μg of protein, 500 μM NAD^+, and 10 μM probe in 100 mM phosphate buffer pH 7.5. The photoaffinity labeling, “click” conjugation to fluorescent dye and visualization were similar to the protocols for labeling recombinant sirtuins as described above.

[3] = target: T1, SIRT6; assay: Western blot of H3K9Ac in HEK293 cells; type: cell-based
Description: The ABPs structurally mimic acylated lysine substrates. However, the presence of substituents could potentially alter their cell permeability, cellular distribution, and target engagement ability. It is essential to determine if these probes are cell permeable and capable of inhibiting endogenous sirtuin activity. The sirtuin family of proteins are often referred to as the class III histone deacetylases (HDACs). Unlike class I and class II HDACs, which are Zn^2+-dependent, sirtuins are NAD^+-dependent. […] Similarly, other sirtuins may not be the only deacetylase of their endogenous substrates. Therefore, the inhibitory effect of the other ABPs may only become apparent when class I/II HADCs are inhibited at the same time. HEK293 cells were cultured in the presence of probe 2C and/or other HDAC inhibitors. Subsequently, the cell lysates were collected and probed for acetylated H3K9 (H3K9Ac), which is an endogenous substrate of SIRT6.
The cell lysate was resolved on a 10% SDS-PAGE gel and transferred to Immobilon PVDF transfer membrane (Millipore, Burlington, MA, USA). The blot was blocked with 5% nonfat milk, probed with primary antibody targeting H3K9Ac (Sigma-Aldrich, St. Louis, MO, USA), H3 (Abcam, Cambridge, MA, USA), acetyllysine or CPS1 (Cell Signaling Technology, Beverly, MA, USA), washed with PBST, followed by incubation with anti-rabbit or anti-mouse HRP conjugated secondary antibody. Then, the signal was detected by SuperSignal West Pico Chemiluminescent substrate (Thermo Fisher Scientific, Rockford, IL, USA).

T1 sequence (Q8N6T7 whole entry): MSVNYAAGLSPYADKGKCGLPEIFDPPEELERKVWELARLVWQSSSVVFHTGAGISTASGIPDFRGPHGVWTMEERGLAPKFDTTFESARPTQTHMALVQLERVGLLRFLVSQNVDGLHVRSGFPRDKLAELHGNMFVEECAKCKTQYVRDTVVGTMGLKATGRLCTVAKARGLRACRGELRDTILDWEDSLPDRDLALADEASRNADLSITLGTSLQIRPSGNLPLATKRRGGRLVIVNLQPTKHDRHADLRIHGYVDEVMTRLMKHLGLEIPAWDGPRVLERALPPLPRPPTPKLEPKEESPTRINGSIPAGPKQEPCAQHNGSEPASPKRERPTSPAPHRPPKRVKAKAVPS

SMILES | IC50 [1] [mM] | amount of cell lysate in which labeling was still observed [2] [µg] | labeling of SIRT2 in cell lysate ([2]; lysate of HEK293 cells overexpressing human SIRT2) | H3K9Ac level, combination with TSA ([3]; combined with TSA) | H3K9Ac level, treatment alone ([3]; single agent)
C#CCCCC1(CCC(=O)N[C@@H](CCCCNC(=S)CCC(=O)O)C(=O)N[C@@H](C)C(=O)N[C@@H](C)C(=O)OC)N=N1 [Probe 2B] | > 5 | – | – | – | –
C#CCCCC1(CCC(=O)N[C@@H](CCCCNC(=S)CCCCCCCCCCCCC)C(=O)N[C@@H](C)C(=O)N[C@@H](C)C(=O)OC)N=N1 [Probe 2C] | – | 4 | clean and selective labeling of SIRT2 | significantly elevated level of H3K9Ac | did not cause any appreciable changes
